Data on 2 compounds can be found in US4820712A, “Sparsomycin (SC-RS) compounds having antitumor activity, a process for their preparation and pharmaceutical compositions containing sparsomycin (SC-RS) compounds” (priority 1986, dated 1989).

For data set [1], the system named is ribosomes from E. coli MRE600 (peptidyl transferase activity). Briefly: puromycin reaction, E. coli ribosomes. The class given is biochemical. The following applies: 50% inhibition relative to control; read-out: ED50 Puromycin reaction E. coli. The method, then:
The peptidyl transferase activity was measured by the polyphenylalanine synthesis assay (Nirenberg and Matthei, Proc. Natl. Acad. Sci. USA 47 (1961) 1588), the fragment reaction (Monro, Methods Enzymol. 20 (1971) 472) and the puromycin reaction. In all the in vitro tests, i.e. polyPhe synthesis, fragment reaction and puromycin reaction, ribosomes from E. coli MRE600 and S. cerevisiae Y166 were used. The reaction mixture for polyphenylalanine synthesis was slightly different for E. coli and S. cerevisiae.
The puromycin reaction was carried out in 25 μl of 30 mM KCl, 50 mM NH4 Cl, 30 mM Tris-HCl pH 7.8, 20 mM MgCl2, 10 pmol of ribosomes, 100 μg/ml of poly(U) and 15 pmol of N-acetyl-[^3 H]Phe-tRNA. The reaction mixture was incubated for 30 min at 37° C. and then 1 μl of 20 mM puromycin was added and incubation was followed for 5 more min. To the samples 250 μl of 0.1M sodium carbonate and 0.7 ml of ethyl acetate were added, shaken for 1 min, centrifuged to separate the phases and 0.5 ml of the upper organic phase taken for estimating the radioactivity.
The concentration of sparsomycin or an analog giving 50% inhibition of the protein synthesis relative to the control is given in ED50.

A further data set has as its system E. coli MRE600. Briefly: inhibition of bacterial growth. The class given is cell-based. The method, then: Inhibition of bacterial growth was tested in solid as well as in liquid medium. For the test on agar plates, petri dishes containing 15 ml of LB medium (10 g/l bactotryptone, 5 g/l yeast extract and 5 g/l NaCl) were covered with 5 ml of the same medium--kept melted at 40° C.--containing 40 μl of a culture of the required bacterium at approximately an A550 of 2. After solidification, 3 mm filter disks containing 4 μl of a 10 mM solution of the antibiotic in 50EtOH/DMSO were placed on the surface of the agar and the plates were incubated at 37° C. for 24 h. For the test in liquid medium, E. coli MRE600 was grown in LB medium supplemented with 0.2% of glucose to exponential phase (A560 =0.1) and distributed in 1 ml aliquots in tubes containing the required amount of antibiotic. The tubes were incubated at 37° C. for 4 h, subsequently diluted with 3 ml of 0.1% of sodium azide to stop growth and the absorption at 550 nm was measured. The absorption of the medium without addition of antibiotic was considered as 100% growth.

For data set [2] the following is noted: clinical tests (Cancer. Chemother. Rep. (1969), 43, 29); cited from earlier work.
For the next data set, the system named is whole reticulocytes. The following applies: attributed to being unable to penetrate these cells; cited from earlier work.

pIC50: −log10 of the molar value. Read-outs that look alike come from different tables or passages of the source.

On to `CSC[S@+]([O-])C[C@H](C)NC(=O)/C=C/c1c(C)[nH]c(=O)[nH]c1=O` [2a, (Sc Rs)-1-(methylthiomethyl)sulfinyl-2-[β-(6-methyl-5-uracilyl)acrylamido]-propane], for which the pIC50 was 6.05 in data set [1] and 5.25 in the data set on E. coli MRE600 (Escherichia coli, MRE600, 4 h, read-out: Growth inhibition E. coli MRE600 ED50).
For `CSC[S@+]([O-])C[C@H](CO)NC(=O)/C=C/c1c(C)[nH]c(=O)[nH]c1=O` [Sparsomycin], the “toxicity revealed in clinical tests” value in data set [2] is on record as “eye toxicity”. Moreover, the pIC50 in data set [1] was 7.00; with E. coli MRE600 (Escherichia coli, MRE600, 4 h; read-out: Growth inhibition E. coli MRE600 ED50), 4.96. The “activity against whole reticulocytes” value in the data set on whole reticulocytes was “not active”.
